Measured values taken from the Deep4Chem optical property database.

Assay: photoluminescence quantum yield (fraction); solvent given as SMILES

Compound `CN(C)c1ccc2nc(-c3ccc(C=C4C(=O)c5ccccc5C4=O)cc3)sc2c1` has a photoluminescence quantum yield (in C1CCCCC1) of 0.13, a photoluminescence quantum yield (in CC#N) of 0 and a photoluminescence quantum yield (in CO) of 0. The photoluminescence quantum yield (in ClC(Cl)Cl) was 0.35.
For `O=Cc1c(O)c(-c2nc3ccccc3s2)cc2ccccc12`, the photoluminescence quantum yield (in C1CCOC1) was 0.066, the photoluminescence quantum yield (in CC#N) was 0.052 and the photoluminescence quantum yield (in CC(C)=O) was 0.053. For the same compound, the photoluminescence quantum yield (in CCO) was 0.07, the photoluminescence quantum yield (in CCOC(C)=O) was 0.068 and the photoluminescence quantum yield (in CN(C)C=O) was 0.077. It also gave a photoluminescence quantum yield (in CO) of 0.061, a photoluminescence quantum yield (in Cc1ccccc1) of 0.068 and a photoluminescence quantum yield (in ClC(Cl)Cl) of 0.065. For the same compound, the photoluminescence quantum yield (in ClCCl) was 0.109.
Work on `F[B-]1(F)n2c(-c3ccccc3)cc(-c3ccccc3)c2N=C2C(c3ccccc3)=CC(c3ccccc3)=[N+]21` yielded a photoluminescence quantum yield (in CC#N) of 0.22 and a photoluminescence quantum yield (in ClC(Cl)Cl) of 0.34.
`CN(C)c1nc(N(C)C)c2nc(C#N)n(Cc3ccccc3)c2n1` showed a photoluminescence quantum yield (in C1COCCO1) of 0.95, a photoluminescence quantum yield (in CC#N) of 0.26 and a photoluminescence quantum yield (in CO) of 0.03. It also gave a photoluminescence quantum yield (in ClCCl) of 0.2.
Work on `Cc1cnc(NC(=O)C2=C(O)c3ccccc3S(=O)(=O)N2C)s1` yielded a photoluminescence quantum yield (in C1COCCO1) of 0.0133, a photoluminescence quantum yield (in CC#N) of 0.0147 and a photoluminescence quantum yield (in CCCCO) of 0.0231. For the same compound, the photoluminescence quantum yield (in CCCO) was 0.0164, the photoluminescence quantum yield (in CCO) was 0.0106 and the photoluminescence quantum yield (in CCOC(C)=O) was 0.0113. For the same compound, the photoluminescence quantum yield (in CO) was 0.00754.
With `CCOC(=O)C1=C(N)n2c(=O)c3ccccc3c(=O)n2C1c1cccs1` (stereo not given) the photoluminescence quantum yield (in CS(C)=O) was 0.075.
With `Fc1c(-n2c3ccccc3c3ccccc32)c(F)c(-n2c3ccccc3c3ccccc32)c(-c2nnc(-c3ccccc3)o2)c1-n1c2ccccc2c2ccccc21` the photoluminescence quantum yield (in Cc1ccccc1) was 0.06.
For `Cc1ccc(C2=C3C=CC([Te]c4ccccc4)=[N+]3[B-](F)(F)n3c([Te]c4ccccc4)ccc32)cc1`, the photoluminescence quantum yield (in C1CCOC1) was 0.01.
`CCN(CC)c1ccc(/C=N/Nc2ccc(C#N)cc2)c(O)c1` gave a photoluminescence quantum yield (in CO) of 0.21.
Compound `c1ccc(-c2nc(-c3ccccc3)nc(-c3ccc(-n4c5ccccc5c5c4c4ccccc4n5-c4ccccc4)cc3)n2)cc1` has a photoluminescence quantum yield (in Cc1ccccc1) of 0.445.
`CN(C)c1ccc(/C=C/C=C/c2nc3ccccc3s2)cc1` showed a photoluminescence quantum yield (in CC#N) of 0.0068, a photoluminescence quantum yield (in CCCCCC) of 0.022 and a photoluminescence quantum yield (in CCCCO) of 0.0044. It also gave a photoluminescence quantum yield (in CCCO) of 0.0054, a photoluminescence quantum yield (in CCO) of 0.0045 and a photoluminescence quantum yield (in CN(C)C=O) of 0.0064. The photoluminescence quantum yield (in CO) was 0.0039, the photoluminescence quantum yield (in Cc1ccccc1) was 0.0088 and the photoluminescence quantum yield (in ClCCl) was 0.0054. The photoluminescence quantum yield (in OCC(O)CO) was 0.039 and the photoluminescence quantum yield (in OCCO) was 0.0062.
`CCCCCCN1C(=O)c2cccc3c(-c4ccc(-c5cc(-c6cccc7ccccc67)nn5-c5ccccc5)s4)ccc(c23)C1=O` gave a photoluminescence quantum yield (in ClCCl) of 0.16.
`Cc1cccc2nc3[nH]c(=O)[nH]c(=O)c3nc12` showed a photoluminescence quantum yield (in CC#N) of 0.017.
`Clc1ccc(/C=C(\c2ccccc2)c2nc3ccccc3s2)cc1` showed a photoluminescence quantum yield (in C1CCCCC1) of 0.001 and a photoluminescence quantum yield (in CO) of 0.001.
Work on `CCN(CC)c1ccc2c(c1)oc(=O)c1cc3cnn(-c4ccccc4)c3nc12` yielded a photoluminescence quantum yield (in C1CCCCC1) of 0.717, a photoluminescence quantum yield (in CCOC(C)=O) of 0.233 and a photoluminescence quantum yield (in CN(C)C=O) of 0.023. For the same compound, the photoluminescence quantum yield (in CO) was 0.002 and the photoluminescence quantum yield (in ClCCl) was 0.325.
Compound `Cc1ccc(C2=C3C=CC(Sc4ccccc4)=[N+]3[B-](F)(F)n3c(Sc4ccccc4)ccc32)cc1` has a photoluminescence quantum yield (in C1CCOC1) of 0.82.
`C(=C\c1ccc(/C=C/c2ccc(N(c3ccccc3)c3ccccc3)cc2)cc1)/c1ccc(/C=C/c2ccc(N(c3ccccc3)c3ccccc3)cc2)cc1` showed a photoluminescence quantum yield (in ClCCl) of 0.84.
Work on `COc1ccc(C2=C3C=c4c(oc5cc6c(cc45)[C@H]4CC[C@]5(C)C(=O)CC[C@H]5[C@@H]4CC6)=[N+]3[B-](F)(F)n3c2cc2c4cc5c(cc4oc23)CC[C@@H]2[C@@H]5CC[C@]3(C)C(=O)CC[C@@H]23)cc1` yielded a photoluminescence quantum yield (in CCOC(C)=O) of 0.61, a photoluminescence quantum yield (in CCOCC) of 0.88 and a photoluminescence quantum yield (in CO) of 0.52.
For `c1ccc(-c2nc(-c3ccccc3)nc(-c3ccc(-n4c5ccccc5c5ccc6c(c7ccccc7n6-c6ccccc6)c54)cc3)n2)cc1`, the photoluminescence quantum yield (in O=P(c1ccccc1)(c1ccccc1)c1ccc2oc3ccc(P(=O)(c4ccccc4)c4ccccc4)cc3c2c1) was 0.9.
`Nc1ccccc1C(=O)O` showed a photoluminescence quantum yield (in C1CCCCC1) of 0.29, a photoluminescence quantum yield (in CC#N) of 0.56 and a photoluminescence quantum yield (in CC(C)=O) of 0.31. For the same compound, the photoluminescence quantum yield (in CCO) was 0.59, the photoluminescence quantum yield (in CS(C)=O) was 0.64 and the photoluminescence quantum yield (in O) was 0.6. The photoluminescence quantum yield (in OCC(F)(F)F) was 0.27 and the photoluminescence quantum yield (in c1ccccc1) was 0.39.
`CC1=CC2=Nc3nc(C)[n+](C)cc3CN2C=C1` gave a photoluminescence quantum yield (in CC#N) of 0.85, a photoluminescence quantum yield (in CCO) of 0.86 and a photoluminescence quantum yield (in O) of 0.79.
In the case of `CCCC1(CCC)c2ccccc2-c2ccccc21`, the photoluminescence quantum yield (in C1CCCCC1) is reported as 0.36.
With `Cc1cc(C)n2c1C=C1c3ccccc3C(c3cccn3C)=[N+]1[B-]2(F)F` the photoluminescence quantum yield (in C1CCOC1) was 0.96, the photoluminescence quantum yield (in CC#N) was 0.97 and the photoluminescence quantum yield (in CCCCCC) was 0.96. It also gave a photoluminescence quantum yield (in CO) of 0.98, a photoluminescence quantum yield (in Cc1ccccc1) of 0.94 and a photoluminescence quantum yield (in ClCCl) of 0.99.
With `Cc1ccc(O)c(-c2nc(C)c3n2CCCC3)c1` the photoluminescence quantum yield (in ClCCl) was 0.43.
In the case of `c1ccc2c3c(ccc2c1)-c1c2ccccc2cc2cccc-3c12`, the photoluminescence quantum yield (in CCCCCCC) is reported as 0.00088.
Compound `C(#Cc1ccc2c(c1)c1cc(C#Cc3ccccc3)ccc1n2-c1cc2ccccc2c2ccccc12)c1ccccc1` has a photoluminescence quantum yield (in ClCCl) of 0.32.
`CCc1c(C)c2n(c1C)[B-](F)(F)[N+]1=C(c3ccc[nH]3)c3ccccc3C1=C2` showed a photoluminescence quantum yield (in C1CCOC1) of 0.71, a photoluminescence quantum yield (in CC#N) of 0.74 and a photoluminescence quantum yield (in CCCCCC) of 0.82. The photoluminescence quantum yield (in CO) was 0.65, the photoluminescence quantum yield (in Cc1ccccc1) was 0.72 and the photoluminescence quantum yield (in ClCCl) was 0.66.
For `CN(C)c1ccc2c(c1)C(=O)c1ccccc1-2`, the photoluminescence quantum yield (in C1CCCCC1) was 0.0087 and the photoluminescence quantum yield (in c1ccccc1) was 0.0012.
Work on `COC(=O)C(NC(=O)OC(C)(C)C)c1ccc2oc(-c3cccc(Oc4ccccc4)c3)nc2c1` (stereo not given) yielded a photoluminescence quantum yield (in CC1CCCCC1) of 0.5, a photoluminescence quantum yield (in CC#N) of 0.37 and a photoluminescence quantum yield (in CO) of 0.13.
In the case of `Cc1ccc(N(c2ccc(C)cc2)c2cc(N(c3ccc(C)cc3)c3ccc(C)cc3)c3ccc4cc(C(C)(C)C)cc5ccc2c3c54)cc1`, the photoluminescence quantum yield (in ClCCl) is reported as 0.78.
In the case of `N#Cc1ncc(-c2c3ccccc3c(-c3cnc(C#N)nc3)c3ccccc23)cn1`, the photoluminescence quantum yield (in CCO) is reported as 0.05 and the photoluminescence quantum yield (in ClCCl) is reported as 0.57.
Compound `COc1ccc(O)c(C=O)c1` has a photoluminescence quantum yield (in CO) of 0.03.
`CC1(C)c2cccc(-c3nc(-c4ccccc4)nc(-c4ccccc4)n3)c2Oc2c(-n3c4ccccc4c4ccccc43)cccc21` showed a photoluminescence quantum yield (in Cc1ccccc1) of 0.059.
With `c1ccc2c([SiH](c3c4ccccc4cc4ccccc34)c3c4ccccc4cc4ccccc34)c3ccccc3cc2c1` the photoluminescence quantum yield (in ClC(Cl)Cl) was 0.028.
With `O=C(c1ccc(-n2c3ccccc3c3ccccc32)cc1)c1ccc(-n2c3ccccc3c3ccccc32)cc1` the photoluminescence quantum yield (in Cc1ccccc1) was 0.21 and the photoluminescence quantum yield (in O=P(c1ccccc1)(c1ccccc1)c1ccccc1Oc1ccccc1P(=O)(c1ccccc1)c1ccccc1) was 0.55.
With `F[B-]1(F)n2c(-c3ccccc3)cnc2-c2cccc[n+]21` the photoluminescence quantum yield (in C1CCCCC1) was 0.33, the photoluminescence quantum yield (in C1CCOC1) was 0.22 and the photoluminescence quantum yield (in C1COCCO1) was 0.24. It also gave a photoluminescence quantum yield (in CC#N) of 0.21, a photoluminescence quantum yield (in CCCCCC) of 0.32 and a photoluminescence quantum yield (in CO) of 0.17. The photoluminescence quantum yield (in ClC(Cl)Cl) was 0.24.
`CC(C)(C)c1ccc2oc3nc4oc5ccc(N6c7ccccc7Sc7ccccc76)cc5c4cc3c2c1` gave a photoluminescence quantum yield (in ClC(Cl)Cl) of 0.016.
For `c1ccc(-c2nn(-c3ccccc3)c3nc4ccc(-n5c6ccccc6c6ccccc65)cc4cc23)cc1`, the photoluminescence quantum yield (in C1CCCCC1) was 0.88, the photoluminescence quantum yield (in C1CCOC1) was 0.81 and the photoluminescence quantum yield (in CC#N) was 0.72. For the same compound, the photoluminescence quantum yield (in CC(C)=O) was 0.72, the photoluminescence quantum yield (in CCCCCl) was 0.88 and the photoluminescence quantum yield (in CCCCOCCCC) was 0.7. The photoluminescence quantum yield (in CN(C)C=O) was 0.76.
In the case of `c1ccc(-c2c3c(nc4ccccc24)-c2cc4c(cc2CC3)-c2nc3ccccc3c(-c3ccccc3)c2CC4)cc1`, the photoluminescence quantum yield (in ClC(Cl)Cl) is reported as 0.84.
In the case of `CC1=C(c2ccccc2)C(C)=[N+]2C1=C(c1c(-c3ccccn3)nc3ccccn13)c1c(C)cc(C)n1[B-]2(F)F`, the photoluminescence quantum yield (in ClCCl) is reported as 0.739.
`CN(C)c1ccc2nc(-c3ccc(C(=O)OC[C@H](NC(=O)OC(C)(C)C)C(=O)OCc4ccccc4)cc3)sc2c1` showed a photoluminescence quantum yield (in C1CCCCC1) of 0.86, a photoluminescence quantum yield (in CC#N) of 0.94 and a photoluminescence quantum yield (in CC(C)O) of 0.9. The photoluminescence quantum yield (in CO) was 0.68, the photoluminescence quantum yield (in CS(C)=O) was 0.94 and the photoluminescence quantum yield (in ClC(Cl)Cl) was 0.98. It also gave a photoluminescence quantum yield (in c1ccccc1) of 0.92.
Compound `CC1(C)c2ccccc2N(c2cccc(S(=O)(=O)c3cccc(N4c5ccccc5C(C)(C)c5ccccc54)c3)c2)c2ccccc21` has a photoluminescence quantum yield (in CCCCC(CC)n1c2ccc(-n3c4ccccc4c4ccccc43)cc2c2cc(-n3c4ccccc4c4ccccc43)ccc21) of 0.239 and a photoluminescence quantum yield (in c1cc(-n2c3ccccc3c3ccccc32)cc(-n2c3ccccc3c3ccccc32)c1) of 0.365.
`CC(C)(C)c1ccc(Oc2cc3c4c(cc(Oc5ccc(C(C)(C)C)cc5)c5c6c(Oc7ccc(C(C)(C)C)cc7)cc7c8c(cc(Oc9ccc(C(C)(C)C)cc9)c(c2c45)c86)C(=O)N(c2ccccc2)C7=O)C(=O)N(c2ccccc2)C3=O)cc1` gave a photoluminescence quantum yield (in ClC(Cl)Cl) of 0.86.
`c1ccc(N(c2ccccc2)c2ccc(N(c3ccccc3)c3ccc4ccc5c(N(c6ccccc6)c6ccc(N(c7ccccc7)c7ccccc7)cc6)ccc6ccc3c4c65)cc2)cc1` showed a photoluminescence quantum yield (in ClCCl) of 0.13.
For `Cc1ccc(C2=Nc3cccc4[n+]3[B-](F)(O2)OC(c2ccc(C)cc2)=N4)cc1`, the photoluminescence quantum yield (in ClCCl) was 0.3.
Work on `N#Cc1ccc(C2=Cc3cc4ccccc4cc3P2(=O)c2ccccc2)cc1` (stereo not given) yielded a photoluminescence quantum yield (in ClCCl) of 0.54.
With `Cc1cc(-c2ccc(-n3c4ccccc4c4ccccc43)cc2)nc(-c2ccc(-n3c4ccccc4c4ccccc43)cc2)n1` the photoluminescence quantum yield (in C1CCOC1) was 0.59, the photoluminescence quantum yield (in CN(C)C=O) was 0.63 and the photoluminescence quantum yield (in Cc1ccccc1) was 0.64. For the same compound, the photoluminescence quantum yield (in ClC(Cl)Cl) was 0.61.
For `CCCC1(CCC)c2cc(-c3ccco3)ccc2-c2ccc(-c3ccco3)cc21`, the photoluminescence quantum yield (in C1CCCCC1) was 0.86.
In the case of `COc1cccc2c1C(=O)c1ccccc1-2`, the photoluminescence quantum yield (in CC#N) is reported as 0.0073, the photoluminescence quantum yield (in CC(C)O) is reported as 0.029 and the photoluminescence quantum yield (in CCCCO) is reported as 0.023. For the same compound, the photoluminescence quantum yield (in CCCO) was 0.021, the photoluminescence quantum yield (in CCO) was 0.02 and the photoluminescence quantum yield (in CO) was 0.011.
For `Clc1cc(Cl)c(B2c3ccccc3Nc3ccccc32)c(Cl)c1`, the photoluminescence quantum yield (in ClCCl) was 0.82.
